For one assay, the system named is LDB3-1. The assay can be described thus: Holdup assay, LDB3-1. Format: binding, human.
The target of the next assay is GOPC-1 (Homo sapiens, UniProt Q9HD26). The assay can be described thus: Holdup assay, GOPC-1. Format: binding.
The target of a further assay is T1, MAGI3-6 (Homo sapiens, UniProt Q5TCQ9).
T1 sequence (Q5TCQ9 1-1481): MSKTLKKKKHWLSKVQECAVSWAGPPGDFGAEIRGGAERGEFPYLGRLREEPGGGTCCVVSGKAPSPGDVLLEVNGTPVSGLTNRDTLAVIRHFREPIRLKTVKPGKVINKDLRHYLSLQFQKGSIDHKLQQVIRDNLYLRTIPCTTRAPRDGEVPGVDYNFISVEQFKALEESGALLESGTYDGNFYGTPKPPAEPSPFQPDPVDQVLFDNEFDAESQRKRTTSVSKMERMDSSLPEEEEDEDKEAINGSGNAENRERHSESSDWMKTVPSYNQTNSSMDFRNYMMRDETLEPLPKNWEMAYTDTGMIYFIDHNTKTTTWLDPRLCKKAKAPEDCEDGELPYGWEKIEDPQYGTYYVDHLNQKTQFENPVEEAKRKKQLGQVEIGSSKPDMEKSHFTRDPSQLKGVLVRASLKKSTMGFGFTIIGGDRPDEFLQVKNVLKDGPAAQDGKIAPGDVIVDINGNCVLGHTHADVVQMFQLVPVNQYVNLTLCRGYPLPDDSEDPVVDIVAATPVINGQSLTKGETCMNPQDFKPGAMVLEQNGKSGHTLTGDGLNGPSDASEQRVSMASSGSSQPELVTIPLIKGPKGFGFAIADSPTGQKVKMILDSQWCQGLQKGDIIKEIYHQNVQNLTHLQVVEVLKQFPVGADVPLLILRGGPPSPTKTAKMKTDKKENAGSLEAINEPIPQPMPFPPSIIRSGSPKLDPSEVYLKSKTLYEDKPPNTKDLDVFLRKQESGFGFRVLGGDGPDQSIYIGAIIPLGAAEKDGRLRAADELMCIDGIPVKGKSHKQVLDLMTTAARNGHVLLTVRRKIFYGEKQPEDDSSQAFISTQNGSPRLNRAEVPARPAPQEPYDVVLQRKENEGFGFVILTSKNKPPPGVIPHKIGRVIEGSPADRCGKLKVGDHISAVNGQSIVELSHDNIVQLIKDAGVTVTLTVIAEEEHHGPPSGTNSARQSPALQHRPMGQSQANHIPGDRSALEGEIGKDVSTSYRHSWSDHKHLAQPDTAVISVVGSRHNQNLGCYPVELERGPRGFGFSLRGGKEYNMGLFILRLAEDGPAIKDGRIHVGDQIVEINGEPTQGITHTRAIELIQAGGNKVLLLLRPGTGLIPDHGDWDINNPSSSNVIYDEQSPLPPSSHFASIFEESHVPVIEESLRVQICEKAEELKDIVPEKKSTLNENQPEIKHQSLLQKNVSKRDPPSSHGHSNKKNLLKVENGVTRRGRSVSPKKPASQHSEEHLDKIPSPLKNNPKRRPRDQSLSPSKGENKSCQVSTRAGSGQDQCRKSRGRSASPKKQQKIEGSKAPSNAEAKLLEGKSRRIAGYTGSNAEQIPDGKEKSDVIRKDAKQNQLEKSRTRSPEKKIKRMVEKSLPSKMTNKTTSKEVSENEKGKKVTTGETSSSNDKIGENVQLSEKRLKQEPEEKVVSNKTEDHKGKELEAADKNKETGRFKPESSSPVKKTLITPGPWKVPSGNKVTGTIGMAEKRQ
The assay can be described thus: Holdup assay, MAGI3-6. Format: binding.

The next assay has as its target T2, SNX27 PDZ 1 (Homo sapiens, UniProt Q96L92).
T2 construct: made in house; host or cells: E. coli
The assay is described as follows: Holdup assay, SNX27-1. Particulars: for BI: PDZ domain SNX27-1. The assay is classed as binding. How it is done:
The holdup assay was performed on a Tecan freedom Evo200 robot with 384-well plates in singlicate for the three 11-mer PTEN variants and the 13-mer PTEN peptide as described in [31, 32]. Briefly, prior to interaction assay, 2.5 μL of streptavidin resin was saturated in each well with 20 μL of biotinylated PBM peptides (42 μM) and then washed twice with an excess of free biotin, while the reference resin was incubated only with biotin. Right before the holdup experiment, the PDZ library was spiked with an internal standard of lysozyme. Then, the biotin- or PBM-saturated resin was incubated, each in a distinct well of a 384-well plate, with complete cell lysates diluted so that the concentration of the tag-PDZ present in the crude extract is adjusted at 4 μM. After a sufficient time to reach complex equilibrium (15 min.), a fast and mild filtration step is performed and the tag-PDZ concentrations were measured by capillary electrophoresis instrument (LabChip GXII, PerkinElmer, Massachusets, USA). Standard markers were used to convert migration time into molecular weight on the LabChip software and inappropriate molecular weight markers were corrected or excluded.
For filtered data, the BI was extracted with the following equation (Eq 1) that estimates the depleted fraction after superimposition of the sample and reference electropherograms: BI=Iref−Ilig/Iref (1) where Iref and Ilig are the intensities of the tag-PDZ peaks measured, for each PDZ domain/PBM peptide interaction pair, in the biotin reference and the PBM electropherograms, respectively.
BIs were transformed into dissociation constants (KD) using the following formula: KD=([PDZtot]−BI·[PDZtot])·([PBMtot]−BI·[PDZtot])/BI·[PDZtot] (2) where [PDZtot] and [PBMtot] correspond to the total concentrations of the PDZ domain (usually around 4 μM) and the PBM peptide used during the assay. Since the PBMtot concentration in the resin during the holdup assay parameter may differ from one peptide to another and remains unknown, it is impossible to directly convert BI values into KD constants. We systematically determined the KD constants for a subset of PDZ/PBM pairs by competitive FP. […] For each PBM, the average peptide concentration was calculated after outlier rejection based on the absolute distances from the median as compared to three times the standard deviation (3σ rule), with never more than 2 values rejected.

A further assay relates to FRMPD2-1. The assay can be described thus: Holdup assay, FRMPD2-1. Format: binding, human.
For another assay, the system named is MAGI2-1. The assay is described as follows: Holdup assay, MAGI2-1. The assay is classed as binding, human.
The test system of another assay is GRIP1-4. The assay can be described thus: Holdup assay, GRIP1-4. Format: binding, human.
Another assay concerns INADL-3. The assay is described as follows: Holdup assay, INADL-3. Format: binding, human.
The test system of another assay is MAST4-1. The assay is described as follows: Holdup assay, MAST4-1. The assay is classed as binding, human.
A further assay deals with LIMK1-1. The assay is described as follows: Holdup assay, LIMK1-1. The assay is classed as binding, human.

Molecules are shown by their SMILES. *1 amine or outer side, *2 acyl side, *3 side chain or, on linkers, in order; H or OH if unused. Where a SMILES comes first, the peptide text is derived from it. The star is where a group is joined. X1 = O=C(CCCC[C@@H]1SC[C@@H]2NC(=O)N[C@@H]21)NCCCOCCOCCOCCCN*; Suc = O=C(CCC(=O)[*:2])[*:1]

Consider four molecules from PMC7774954, “Interactomic affinity profiling by holdup assay: Acetylation and distal residues impact the PDZome-binding specificity of PTEN phosphatase” (PLoS ONE, 2020).

By Kd is commonly meant the concentration at which binding is half-saturated. A high value points to lower affinity. `CC[C@H](C)[C@H](NC(=O)[C@H](CCC(N)=O)NC(=O)[C@@H](NC(=O)[C@H](Cc1c[nH]cn1)NC(=O)[C@H](CCC(N)=O)NC(=O)[C@H](CC(=O)O)NC(=O)[C@H](CCC(=O)O)NC(=O)[C@H](CC(=O)O)NC(=O)[C@H](Cc1ccccc1)NC(=O)[C@@H]1CCCN1C(=O)CCC(=O)NCCCOCCOCCOCCCNC(=O)CCCC[C@@H]1SC[C@@H]2NC(=O)N[C@@H]21)[C@@H](C)O)C(=O)N[C@H](C(=O)N[C@@H](CCCCN)C(=O)N[C@H](C(=O)O)C(C)C)[C@@H](C)O` [PTEN_13] ({X1-Suc}-PFDEDQHTQITKV-OH): the BI with LDB3-1 is -0.021; at GOPC-1, 0.199; at MAGI3-6, 0.044; at SNX27 PDZ 1 it was 0.717; in the assay with FRMPD2-1, -0.07; with MAGI2-1 it was -0.114. In addition, the BI with GRIP1-4 is on record as -0.039; with INADL-3 it was 0.031; with MAST4-1, 0.058; in the assay on LIMK1-1 it was -0.103. The Kd at GOPC-1 was 65.2 µM; at SNX27 PDZ 1, 5.58 µM. Besides, on MAGI3-6, the LogKD came to 3.826.
As for `CC[C@H](C)[C@H](NC(=O)[C@H](CCC(N)=O)NC(=O)[C@@H](NC(=O)[C@H](Cc1c[nH]cn1)NC(=O)[C@H](CCC(N)=O)NC(=O)[C@H](CC(=O)O)NC(=O)[C@H](CCC(=O)O)NC(=O)[C@H](CC(=O)O)NC(=O)CCC(=O)NCCCOCCOCCOCCCNC(=O)CCCC[C@@H]1SC[C@@H]2NC(=O)N[C@@H]21)[C@@H](C)O)C(=O)N[C@H](C(=O)N[C@@H](CCCNC(=N)N)C(=O)N[C@H](C(=O)O)C(C)C)[C@@H](C)O` [PTEN_KR] ({X1-Suc}-DEDQHTQITRV-OH), the BI with LDB3-1 is given as -0.05; at GOPC-1, 0.45; on MAGI3-6, 0.067; on SNX27 PDZ 1, 0.67; in the assay with FRMPD2-1, -0.015; in the assay on MAGI2-1 it was -0.074. The BI with GRIP1-4 is -0.042; in the assay with INADL-3, -0.042; in the assay on MAST4-1, -0.027; in the assay with LIMK1-1 it was -0.08. Besides, the LogKD with LDB3-1, at MAGI3-6, in the assay on FRMPD2-1, with MAGI2-1, with GRIP1-4 and with INADL-3 was 3.655 throughout. The LogKD with MAST4-1 and with LIMK1-1 was 3.655 each time. The dissociation constant (Kd) at GOPC-1 is 28.4 µM; at SNX27 PDZ 1 it was 8.32 µM.
With `CC[C@H](C)[C@H](NC(=O)[C@H](CCC(N)=O)NC(=O)[C@@H](NC(=O)[C@H](Cc1c[nH]cn1)NC(=O)[C@H](CCC(N)=O)NC(=O)[C@H](CC(=O)O)NC(=O)[C@H](CCC(=O)O)NC(=O)[C@H](CC(=O)O)NC(=O)CCC(=O)NCCCOCCOCCOCCCNC(=O)CCCC[C@@H]1SC[C@@H]2NC(=O)N[C@@H]21)[C@@H](C)O)C(=O)N[C@H](C(=O)N[C@@H](CCCCN)C(=O)N[C@H](C(=O)O)C(C)C)[C@@H](C)O` [PTEN_11], the BI in the assay with LDB3-1 was -0.027; at GOPC-1, 0.26; on MAGI3-6, 0.071; in the assay with FRMPD2-1, -0.044; in the assay on MAGI2-1 it was -0.04; with GRIP1-4 it was 0.028. For the same molecule, the results for the BI in the assay on INADL-3, with MAST4-1 and in the assay with LIMK1-1 were -0.001, -0.08 and -0.066, respectively. Also, the LogKD with LDB3-1, at MAGI3-6, with FRMPD2-1, in the assay with MAGI2-1, with GRIP1-4 and in the assay with INADL-3 was 3.519 each time. Also, the LogKD in the assay with MAST4-1 and with LIMK1-1 was 3.519 in each case. Moreover, the Kd at GOPC-1 was 93.8 µM; on SNX27 PDZ 1, 13.8 µM.
Regarding `CC[C@H](C)[C@H](NC(=O)[C@H](CCC(N)=O)NC(=O)[C@@H](NC(=O)[C@H](Cc1c[nH]cn1)NC(=O)[C@H](CCC(N)=O)NC(=O)[C@H](CC(=O)O)NC(=O)[C@H](CCC(=O)O)NC(=O)[C@H](CC(=O)O)NC(=O)CCC(=O)NCCCOCCOCCOCCCNC(=O)CCCC[C@@H]1SC[C@@H]2NC(=O)N[C@@H]21)[C@@H](C)O)C(=O)N[C@H](C(=O)N[C@@H](CCCCNC(C)=O)C(=O)N[C@H](C(=O)O)C(C)C)[C@@H](C)O` [PTEN_Ac], the BI was -0.04 with LDB3-1; 0.404 at GOPC-1; 0.251 on MAGI3-6; 0.859 on SNX27 PDZ 1; -0.083 in the assay on FRMPD2-1; 0.014 with MAGI2-1. In addition, the BI was 0.038 with GRIP1-4, -0.021 in the assay on INADL-3, -0.003 in the assay with MAST4-1 and -0.047 with LIMK1-1. Also, the LogKD with LDB3-1, in the assay on FRMPD2-1, with MAGI2-1, in the assay on GRIP1-4, in the assay on INADL-3 and with MAST4-1 was 3.605 each time. The molecule also showed a LogKD in the assay on LIMK1-1 of 3.605. Also, the Kd was 38.9 µM on GOPC-1, 80.6 µM at MAGI3-6 and 4.03 µM on SNX27 PDZ 1.
